The target in test [1] is T1, Human immunodeficiency virus type 1 reverse transcriptase (Human immunodeficiency virus 1, UniProt Q72547). Kind of test: Compound concentration that causes 50 % inhibition of HIV-1 peptide-derived reverse transcriptase (RT).
Test [2] has as its target T1, Human immunodeficiency virus type 1 reverse transcriptase. Kind of test: Inhibitory constant was determined in an HIV-1 reverse transcriptase assay in which the [3H]dTTP concentration was varied (i.e. 40, 20, 10, 6, and 4 uM.
The target is the same in test [3]. Put plainly: Compound concentration that causes 50 % inhibition of HIV-1 peptide-derived reverse transcriptase (RT) obtained from HIV-1-infected H9 cell cultures.

Broadly, the IC50 is the concentration at which inhibition is half-maximal. The Ki is the equilibrium dissociation constant of an inhibitor or competing ligand from its target. Low readings indicate tighter binding, high ones weaker binding.

In the case of `Cc1cn(C2CC(N=[N+]=[N-])C(COP(=O)(O)OP(=O)(O)CP(=O)(O)O)O2)c(=O)[nH]c1=O` (centres undefined), the IC50 in test [1] is 6.95 µM.

In test [1], `Cc1cn(C2CC(N=[N+]=[N-])C(COP(=O)(O)OP(=O)(O)C(F)(F)P(=O)(O)O)O2)c(=O)[nH]c1=O` (centres undefined) returned an IC50 of 0.62 µM. In test [2], this molecule showed a Ki of 2.23 µM. In turn, `Cc1cn([C@H]2C[C@H](N=[N+]=[N-])[C@@H](CO[P@](=O)(O)O[P@](=O)(O)OP(=O)(O)O)O2)c(=O)[nH]c1=O` [ZIDOVUDINE TRIPHOSPHATE] had an IC50 in test [3] of 0.022 µM.

For the origin of these results see ChEMBL document CHEMBL1125995, “Synthesis of a difluoromethylenephosphonate analogue of AZT 5'-triphosphate and its inhibition of HIV-1 reverse transcriptase” (Bioorg Med Chem Lett, 1991).
